How the values were obtained:
Test in all cases: relative viability (nuclei count vs DMSO), 5 days (fraction); higher = more cells survive
[1] = compound: O=C(O)c1ccc2c(c1)nc(Nc1cccc(Cl)c1)c1ccncc12 [Silmitasertib] + Nc1ncn([C@H]2C[C@H](O)[C@@H](CO)O2)c(=O)n1 [Decitabine] (partner 2 µM)
Outline: (§1)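 Each reported value is a median over duplicate plates. It expresses relative viability: treated-well nuclei count divided by vehicle-well nuclei count. Lung cancer cell lines in 1536-well plates were dosed by pin tool a day after seeding, alone with one drug or with a fixed anchor-drug dose plus five library-drug doses (not always all listed) in √10 steps, and nuclei were counted after 5 days.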

[2] = compound: O=C(O)c1ccc2c(c1)nc(Nc1cccc(Cl)c1)c1ccncc12 [Silmitasertib] + Cc1cc(Nc2cc(N3CCN(C)CC3)nc(Sc3ccc(NC(=O)C4CC4)cc3)n2)n[nH]1 [Tozasertib] (partner 0.1 µM)
Outline: as §1

[3] = compound: O=C(O)c1ccc2c(c1)nc(Nc1cccc(Cl)c1)c1ccncc12 [Silmitasertib] + Nc1nc2[nH]cc(CCc3ccc(C(=O)N[C@@H](CCC(=O)O)C(=O)O)cc3)c2c(=O)[nH]1 [Pemetrexed] (partner 0.2 µM)
Outline: as §1

[4] = compound: O=C(O)c1ccc2c(c1)nc(Nc1cccc(Cl)c1)c1ccncc12 [Silmitasertib] + CC(=O)c1c(C)c2cnc(Nc3ccc(N4CCNCC4)cn3)nc2n(C2CCCC2)c1=O [Palbociclib] (partner 0.5 µM)
Outline: as §1

[5] = compound: O=C(O)c1ccc2c(c1)nc(Nc1cccc(Cl)c1)c1ccncc12 [Silmitasertib] + COc1cccc2cc(-c3nc([C@H]4CC[C@H](C(=O)O)CC4)n4ncnc(N)c34)[nH]c12 [OSI-027] (partner 0.5 µM)
Outline: as §1

[6] = compound: O=C(O)c1ccc2c(c1)nc(Nc1cccc(Cl)c1)c1ccncc12 [Silmitasertib] + O=C(CCCCCCC(=O)Nc1ccccc1)NO [Vorinostat] (partner 1 µM)
Outline: as §1

[7] = compound: O=C(O)c1ccc2c(c1)nc(Nc1cccc(Cl)c1)c1ccncc12 [Silmitasertib] + NC(=O)Nc1cc(-c2cccc(F)c2)sc1C(=O)N[C@H]1CCCNC1 [AZD7762] (partner 0.2 µM)
Outline: as §1

[8] = compound: O=C(O)c1ccc2c(c1)nc(Nc1cccc(Cl)c1)c1ccncc12 [Silmitasertib] + CC(=O)Nc1cccc(-n2c(=O)n(C3CC3)c(=O)c3c(Nc4ccc(I)cc4F)n(C)c(=O)c(C)c32)c1 [Trametinib] (partner 0.02 µM)
Outline: as §1

[9] = compound: O=C(O)c1ccc2c(c1)nc(Nc1cccc(Cl)c1)c1ccncc12 [Silmitasertib] + O=C(c1cc(Cc2n[nH]c(=O)c3ccccc23)ccc1F)N1CCN(C(=O)C2CC2)CC1 [Olaparib] (partner 8 µM)
Outline: as §1

[10] = compound: O=C(O)c1ccc2c(c1)nc(Nc1cccc(Cl)c1)c1ccncc12 [Silmitasertib]
Outline: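 Vehicle-anchored 1536-well plates of lung cancer cell lines, held overnight at 37 °C, were pinned with five library-drug doses (not always all listed) spaced by √10. No medium change followed over the next 5 days, after which the cells were fixed, permeabilised and Hoechst-stained together and imaged at 4×. Nuclei were counted with MetaXpress, and viability is treated-well nuclei over vehicle-well nuclei, taken as a median across plates. Plates passed with control CV below 25% and at least one doubling.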

[11] = compound: O=C(O)c1ccc2c(c1)nc(Nc1cccc(Cl)c1)c1ccncc12 [Silmitasertib] + N=C(N)NC(=N)NCCc1ccccc1 [Phenformin] (partner 250 µM)
Outline: as §1

[12] = compound: O=C(O)c1ccc2c(c1)nc(Nc1cccc(Cl)c1)c1ccncc12 [Silmitasertib] + CCNC(=O)c1noc(-c2cc(C(C)C)c(O)cc2O)c1-c1ccc(CN2CCOCC2)cc1 [Luminespib] (partner 0.01 µM)
Outline: as §1

[13] = compound: O=C(O)c1ccc2c(c1)nc(Nc1cccc(Cl)c1)c1ccncc12 [Silmitasertib] + Cc1nc(Nc2ncc(C(=O)Nc3c(C)cccc3Cl)s2)cc(N2CCN(CCO)CC2)n1 [Dasatinib] (partner 0.075 µM)
Outline: as §1

[14] = compound: O=C(O)c1ccc2c(c1)nc(Nc1cccc(Cl)c1)c1ccncc12 [Silmitasertib] + COc1cc2c(Oc3ccc(NC(=O)C4(C(=O)Nc5ccc(F)cc5)CC4)cc3F)ccnc2cc1OCCCN1CCOCC1 [Foretinib] (partner 0.25 µM)
Outline: as §1

NCI-H1648
relative viability ([1]; first compound 0.04 µM): 0.49
relative viability ([1]; first compound 0.4 µM): 0.55
relative viability ([1]; first compound 1.265 µM): 0.494
relative viability ([1]; first compound 4 µM): 0.559
relative viability ([2]; first compound 0.04 µM): 0.61
relative viability ([2]; first compound 1.265 µM): 0.283
relative viability ([2]; first compound 4 µM): 0.363
relative viability ([3]; first compound 0.04 µM): 0.689
relative viability ([3]; first compound 0.4 µM): 0.699
relative viability ([3]; first compound 1.265 µM): 0.863
relative viability ([3]; first compound 4 µM): 0.679
relative viability ([4]; first compound 0.04 µM): 0.256
relative viability ([4]; first compound 0.4 µM): 0.229
relative viability ([4]; first compound 1.265 µM): 0.301
relative viability ([4]; first compound 4 µM): 0.327
relative viability ([5]; first compound 0.04 µM): 0.255
relative viability ([5]; first compound 1.265 µM): 0.267
relative viability ([5]; first compound 4 µM): 0.245
relative viability ([6]; first compound 0.04 µM): 0.435
relative viability ([6]; first compound 0.4 µM): 0.517
relative viability ([6]; first compound 1.265 µM): 0.271
relative viability ([6]; first compound 4 µM): 0.574
relative viability ([7]; first compound 0.04 µM): 0.709
relative viability ([7]; first compound 0.4 µM): 0.624
relative viability ([7]; first compound 1.265 µM): 0.739
relative viability ([7]; first compound 4 µM): 0.423
relative viability ([8]; first compound 0.04 µM): 0.634
relative viability ([8]; first compound 0.4 µM): 0.366
relative viability ([8]; first compound 1.265 µM): 0.474
relative viability ([8]; first compound 4 µM): 0.527
relative viability ([9]; first compound 0.04 µM): 0.84
relative viability ([9]; first compound 0.4 µM): 0.525
relative viability ([9]; first compound 1.265 µM): 1.07
relative viability ([9]; first compound 4 µM): 0.876
relative viability ([10]; 0.04 µM): 1.26
relative viability ([10]; 0.4 µM): 0.63
relative viability ([10]; 1.265 µM): 0.889
relative viability ([10]; 4 µM): 0.684

NCI-H2342
relative viability ([11]; first compound 0.04 µM): 0.614
relative viability ([11]; first compound 0.4 µM): 0.713
relative viability ([11]; first compound 1.265 µM): 0.465
relative viability ([11]; first compound 4 µM): 0.493
relative viability ([1]; first compound 0.04 µM): 0.791
relative viability ([1]; first compound 1.265 µM): 0.79
relative viability ([1]; first compound 4 µM): 0.743
relative viability ([2]; first compound 0.04 µM): 0.479
relative viability ([2]; first compound 0.4 µM): 0.479
relative viability ([2]; first compound 1.265 µM): 0.374
relative viability ([2]; first compound 4 µM): 0.445
relative viability ([3]; first compound 0.04 µM): 0.77
relative viability ([3]; first compound 1.265 µM): 0.72
relative viability ([3]; first compound 4 µM): 0.681
relative viability ([4]; first compound 0.04 µM): 0.522
relative viability ([4]; first compound 1.265 µM): 0.494
relative viability ([4]; first compound 4 µM): 0.495
relative viability ([5]; first compound 0.04 µM): 0.762
relative viability ([5]; first compound 0.4 µM): 0.606
relative viability ([5]; first compound 1.265 µM): 0.504
relative viability ([5]; first compound 4 µM): 0.539
relative viability ([6]; first compound 0.04 µM): 0.782
relative viability ([6]; first compound 1.265 µM): 0.746
relative viability ([6]; first compound 4 µM): 0.727
relative viability ([7]; first compound 0.04 µM): 0.471
relative viability ([7]; first compound 1.265 µM): 0.387
relative viability ([7]; first compound 4 µM): 0.401
relative viability ([12]; first compound 0.04 µM): 0.708
relative viability ([12]; first compound 0.4 µM): 0.729
relative viability ([12]; first compound 1.265 µM): 0.715
relative viability ([12]; first compound 4 µM): 0.778
relative viability ([13]; first compound 0.04 µM): 0.33
relative viability ([13]; first compound 0.4 µM): 0.295
relative viability ([13]; first compound 1.265 µM): 0.271
relative viability ([13]; first compound 4 µM): 0.298
relative viability ([8]; first compound 0.04 µM): 0.909
relative viability ([8]; first compound 1.265 µM): 0.781
relative viability ([8]; first compound 4 µM): 0.811
relative viability ([14]; first compound 0.04 µM): 1.19
relative viability ([14]; first compound 0.4 µM): 0.981
relative viability ([14]; first compound 1.265 µM): 0.889
relative viability ([14]; first compound 4 µM): 1.14
relative viability ([9]; first compound 0.04 µM): 0.422
relative viability ([9]; first compound 1.265 µM): 0.434
relative viability ([9]; first compound 4 µM): 0.426
relative viability ([10]; 0.04 µM): 1.1
relative viability ([10]; 0.4 µM): 0.839
relative viability ([10]; 1.265 µM): 0.998
relative viability ([10]; 4 µM): 0.839

Source: the supplement of paper PMC10307832
